# Source: patent US4539319A (priority 1982, dated 1985)
# Several values for one entry are separate records, joined by “and”; a condition that tells them apart may be missing. Identical values can stand only once. Counter-ions that a name gives are not always drawn. Like-named read-outs stand apart in the source and are kept apart here.
# Legend:
# [1] = tested on: ST from E coli P16; parameters: species or system mice; details: mouse, in vivo
# [2] = Determination of Therapeutic Ratios: LD50 in suckling 8 day old mice; details: mouse, in vivo
# Experimental: LD50 determinations were made by dosing groups of suckling 8 day old mice with appropriate concentrations orally. Deaths were noted over a 7 day period and LD50s calculated using a probit regression program. ED50 determinations were carried out by dosing groups of 6-8 day old mice with appropriate concentrations orally. The percentage fluid inhibition was determined as above and ED50s calculated using a log/linear regression analysis and the formula given in the British Pharmacopoeia.
# For computation of T.R.'s the standard errors of ED50 values were corrected to normalise the errors and the T.R.'s expressed as the ratio (LD50 /ED50) and standard deviation range (Table 3).
# [3] = tested on: E coli B44; experiment: Protection of Neonatal Mice from Lethal Enteropathogenic E coli Infection; assay type: in vivo, E coli B44 infection in 4 day old mice; details: 10 mg/kg b.i.d.; for % mortality in mice dosed with compound: n = 60; for % Reduction in mortality: versus placebo
# Experimental: 4 day old mice were orally dosed with 50 μl of phosphate buffered saline containing 1×10^5 organisms/ml of E coli B44. The mice were then dosed b.i.d. with either placebo or drug for four days commencing 16 hours after infection. The animals were left with their mothers throughout the experiment and a daily record of deaths was made. The experiment was terminated when no mortality was seen over a 24 hour period. (Usually 7-10 days after infection). The mortality in the drug group was then compared with the mortality in the placebo group using the following formula:
# % Reduction in mortality=[(MP -MD)/MP]× 100
# MP =mortality in group having placebo
# MD =mortality in group receiving drug
# Statistical analysis was performed using 2×2 contingency tables (single tailed `p`).
# [4] = tested on: enterotoxin (culture filtrate) from enteropathogenic E coli strain P16; parameters: species or system piglets; details: in vivo; hydrochloride
# [5] = tested on: 8 Bromo cyclic GMP; parameters: species or system mice; details: mouse, in vivo
# [6] = tested on: enterotoxin induced secretion; experiment: animal or person; assay type: in vivo, mice; details: Mus musculus, po
# [7] = tested on: ST from E coli 431; parameters: species or system mice; details: mouse, in vivo
# [8] = tested on: ST from E coli P155; parameters: species or system mice; details: mouse, in vivo
compound,measurement,setting,value
"CCCCN(CCCC)C(=N)c1ccc(O)c2c1CCCC2 [Example 16, N',N'-di-n-butyl-4-hydroxy-5,6,7,8-tetrahydro-1-naphthamidine hydrochloride]",% inhibition,[1]; hydrochloride,58% and 41%
"COc1ccc(C(=N)N2CCCCC2)c2c1CCCC2.Cl [Example 10, 1-[Imino(4-methoxy-5,6,7,8-tetrahydro-1-naphthyl)-methyl]piperidine, hydrochloride]",% inhibition,[1]; hydrochloride,33% and 35%
"CCCCN(CCCC)C(=N)c1ccc(OCc2ccccc2)c2c1CCCC2 [Example 12, N',N'-Di-n-butyl-4-benzyloxy-5,6,7,8-tetrahydro-1-naphthamidine, hydrochloride]",% inhibition,[1]; hydrochloride,70% and 52%
"CCCN(CCC)C(=N)c1ccc(OC)c2c1CCCC2 [Example 9, 4-methoxy-N',N'-di-n-propyl-5,6,7,8-tetrahydro-1-naphthamidine, hydrochloride]",% inhibition,[1]; hydrochloride,43% and 29%
"CN(C)C(=N)c1ccc(OCc2ccccc2)c2c1CCCC2 [Example 15, 4-Benzyloxy-N',N'-dimethyl-5,6,7,8-tetrahydro-1-naphthamidine, hydrochloride]",% inhibition,[1]; hydrochloride,39% and 22%
"4-Methoxy-N,N-di-amylamine-5,6,7,8-tetrahydro-1-naphthamidine, hydrochloride [Example 13]",% inhibition,[1]; hydrochloride,38% and 33%
"CCCCN(CCCC)C(=N)c1ccc(OC(C)C)c2c1CCCC2 [Example 14, N',N'-di-n-butyl-4-isopropyloxy-5,6,7,8-tetrahydro-1-naphthamidine, hydrochloride]",% inhibition,[1],52%
"CCCCN(CCCC)C(=N)c1ccc(OC)c2c1CCCC2 [Example 11, N',N'-Di-n-butyl-4-methoxy-5,6,7,8-tetrahydro-1-naphthamidine, hydrochloride]",selectivity ratio,"[2]; po, therapeutic ratio (T.R.), standard errors of ED50 corrected, range (3.9-8.1)",5.6
same,LD50 at 168 h,"[2]; oral, 8 day old mice, deaths over 7 days, range (83-91)",87 mg/kg
same,% inhibition (Table 2),[1],59%
same,% inhibition,[1]; hydrochloride,59% and 32%
same,% mortality in mice dosed with compound,"[3]; day 2 post infection, control 31",25%
same,% Reduction in mortality,[3]; day 2 post infection,18%
same,% mortality in mice dosed with compound,"[3]; day 3 post infection, control 68, *P < 0.05",47%
same,% Reduction in mortality,[3]; day 3 post infection,31%
same,% mortality in mice dosed with compound,"[3]; day 4 post infection, control 79, **P < 0.01",53%
same,% Reduction in mortality,[3]; day 4 post infection,33%
same,% mortality in mice dosed with compound,"[3]; day 5 post infection, control 84, ***P < 0.001",57%
same,% Reduction in mortality,[3]; day 5 post infection,32%
same,% mortality in mice dosed with compound,"[3]; day 6 post infection, control 84, **P < 0.01",58%
same,% Reduction in mortality,[3]; day 6 post infection,30%
same,% mortality in mice dosed with compound,"[3]; day 7 post infection, control 84, **P < 0.01",58%
same,% Reduction in mortality,[3]; day 7 post infection,30%
same,Mean scour score during 7 hr observation period ± SEM,[4],2.1 ± 0.3 and 1.2 ± 0.2
same,% inhibition,[5],42%
same,ED50,[6],16 mg/kg
same,% inhibition,[7],47%
same,% inhibition,[8],31%
